Like-named read-outs stand apart in the source and are kept apart here.

One series deals with Botrytis cinerea. Kind of series: Botrytis test (bean) / protective. Type of series: in vivo. The note with it: 48 h, read-out: efficacy. As for the experimental part:
(§1) To produce a suitable preparation of active compound, 1 part by weight of active compound is mixed with the stated amounts of solvent and emulsifier, and the concentrate is diluted with water to the desired concentration.
To test for protective activity, young plants are sprayed with the active compound preparation at the stated application rate. After the spray coating has dried on, 2 small pieces of agar overgrown with Botrytis cinerea are placed on each leaf. The inoculated plants are then placed in a darkened chamber at about 20° C. and 100% relative atmospheric humidity.
Two days after the inoculation the size of the infected spots on the leaves is evaluated. 0% means an efficacy which corresponds to that of the control, whereas an efficacy of 100% means that no infection is observed.

The test system of the next series is Puccinia recondita. Kind of series: Puccinia test (wheat) / protective. Type of series: in vivo. The note with it: 240 h, read-out: efficacy. As for the experimental part: as §1
To test for protective activity, young plants are sprayed with the active compound preparation at the stated application rate. After the spray coating has dried on, the plants are sprayed with a conidia suspension of Puccinia recondita. The plants remain in an incubation cabin at 20° C. and 100% relative atmospheric humidity for 48 hours.
The plants are then placed in a greenhouse at a temperature of about 20° C. and a relative atmospheric humidity of 80% to promote the development of rust pustules.
(§2) Evaluation is carried out 10 days after the inoculation. 0% means an efficacy which corresponds to that of the control, whereas an efficacy of 100% means that no infection is observed.

The subject of the next series is Uromyces appendiculatus. In words: Uromyces test (bean) / protective. The format is in vivo. The note with it: 240 h, read-out: efficacy. The method, then:
as §1
To test for protective activity, young plants are sprayed with the active compound preparation at the stated application rate. After the spray coating has dried on, the plants are inoculated with an aqueous spore suspension of the bean rust pathogen Uromyces appendiculatus and then remain in an incubation cabin at about 20° C. and 100% relative atmospheric humidity for 1 day.
The plants are then placed in a greenhouse at about 21° C. and a relative atmospheric humidity of about 90%.
as §2

The next series concerns Podosphaera leucotricha. In words: Podosphaera test (apple) / protective. The note with it: 240 h, read-out: efficacy. The format is in vivo. As for the experimental part:
as §1
To test for protective activity, young plants are sprayed with the active compound preparation at the stated application rate. After the spray coating has dried on, the plants are inoculated with an aqueous spore suspension of the apple mildew pathogen Podosphaera leucotricha. The plants are then placed in a greenhouse at about 23° C. and a relative atmospheric humidity of about 70%.
as §2

The test system of a further series is Sphaerotheca fuliginea. Kind of series: Sphaerotheca test (cucumber) / protective. Type of series: in vivo. The note with it: Podosphaera fuliginea, 168 h, read-out: efficacy. The method, then:
as §1
To test for protective activity, young plants are sprayed with the active compound preparation at the stated application rate. After the spray coating has dried, the plants are inoculated with an aqueous spore suspension of Sphaerotheca fuliginea. The plants are then placed in a greenhouse at about 23° C. and a relative atmospheric humidity of about 70%.
Evaluation is carried out 7 days after the inoculation. 0% means an efficacy which corresponds to that of the control, whereas an efficacy of 100% means that no infection is observed.

Where [1] appears, read: bean plants, protective spray, active compound concentration 250 ppm, evaluation two days after inoculation.
[2] abbreviates: wheat plants, protective spray, active compound concentration 1000 ppm, evaluation 10 days after inoculation.
The mark [3] stands for this setting: bean plants, protective spray, active compound concentration 10 ppm, evaluation 10 days after inoculation.
Setting [4] is: apple plants, protective spray, active compound concentration 100 ppm, evaluation 10 days after inoculation.
The mark [5] stands for this setting: cucumber plants, protective spray, active compound concentration 100 ppm, evaluation 7 days after inoculation.

For `Cc1cc(Oc2ccc(C3CCCCC3)cc2)c(C)cc1/N=C/N1CCCCC1` [Compound 41, 4-(4-cyclohexylphenoxy)-2,5-dimethyl-N-[(1E)-piperidin-1-ylmethylene]aniline], in “logP (acidic, pH 2.3)” (pH 2.3, logP acidic, acidic), the logP came to 3.46. Also, the pest or weed control at 250 ppm with Botrytis cinerea (setting [1]) was no less than 70%. In addition, in the series on Puccinia recondita (setting [2]), the pest or weed control at 1000 ppm was no less than 70%. For the same compound, the pest or weed control at 10 ppm in the series with Uromyces appendiculatus (setting [3]) was no less than 70%. In addition, the pest or weed control at 100 ppm in the series on Podosphaera leucotricha (setting [4]) and in the series on Sphaerotheca fuliginea (setting [5]) was no less than 70% each time.
On to “4-(4-Cyclohexylphenoxy)-2,5-dimethylnitrobenzene”, for which the “log P (pH 2.3)” value turned out to be 6.69.
On to `CCN(C)C=Nc1cc(C)c(Oc2ccc(-c3ccccc3F)cc2)cc1C` [Compound 17], for which, in the series “logP (acidic, pH 2.3)” (pH 2.3), the logP came out at 2.56. Also, in the series with Botrytis cinerea, the pest or weed control at 250 ppm is no less than 70%. For the same compound, in the series on Puccinia recondita, the pest or weed control at 1000 ppm is no less than 70%. Further, the pest or weed control at 10 ppm in the series with Uromyces appendiculatus is no less than 70%. Moreover, the pest or weed control at 100 ppm with Podosphaera leucotricha and in the series with Sphaerotheca fuliginea was no less than 70% each time.
`CCN(C)C=Nc1cc(C)c(Oc2ccc(-c3ccc(Cl)cc3)cc2)cc1C` [Compound 1, N′-{4-[(4′-chlorobiphenyl-4-yl)oxy]-2,5-dimethylphenyl}-N-ethyl-N-methylimidoformamide]: in the series “logP (acidic, pH 2.3)” (pH 2.3, logP acidic, acidic), the log partition coefficient (logP) stood at 2.95. Also, the pest or weed control at 250 ppm in the series with Botrytis cinerea (setting [1]) was no less than 70%. For the same compound, the pest or weed control at 1000 ppm in the series with Puccinia recondita (setting [2]) is no less than 70%. Further, in the series with Uromyces appendiculatus (setting [3]), the pest or weed control at 10 ppm was no less than 70%. For the same compound, the pest or weed control at 100 ppm with Podosphaera leucotricha (setting [4]) and in the series on Sphaerotheca fuliginea (setting [5]) was no less than 70% throughout.
As to `CCN(C)C=Nc1cc(C)c(Oc2ccc(C3CCCCC3)cc2)cc1C` [Compound 38, N′-{4-[4-cyclohexylphenoxy]-2,5-dimethylphenyl}-N-ethyl-N-methylimidoformamide], the logP in the series “logP (acidic, pH 2.3)” (pH 2.3, log P (pH 2.3), pH 2.3) stood at 2.99; in the series “logP (acidic, pH 2.3)” (pH 2.3, logP acidic, acidic) it was 2.99. Moreover, the pest or weed control at 250 ppm with Botrytis cinerea (setting [1]) was no less than 70%. The pest or weed control at 1000 ppm in the series with Puccinia recondita (setting [2]) was no less than 70%. Besides, the pest or weed control at 10 ppm in the series on Uromyces appendiculatus (setting [3]) is no less than 70%. Also, the pest or weed control at 100 ppm with Podosphaera leucotricha (setting [4]) and in the series on Sphaerotheca fuliginea (setting [5]) was no less than 70% each time.
The compound `CCN(C)C=Nc1cc(C)c(Oc2ccc(-c3ccccc3C)cc2)cc1C` [Compound 16] had a log partition coefficient (logP) in the series “logP (acidic, pH 2.3)” (pH 2.3) of 2.75. The pest or weed control at 250 ppm with Botrytis cinerea is no less than 70%. In addition, the pest or weed control at 1000 ppm in the series with Puccinia recondita is no less than 70%. In addition, the pest or weed control at 10 ppm in the series with Uromyces appendiculatus was no less than 70%. In addition, the pest or weed control at 100 ppm in the series with Podosphaera leucotricha and with Sphaerotheca fuliginea was no less than 70% each time.
Consider `CCc1ccccc1-c1ccc(Oc2cc(C)c(N=CN(C)CC)cc2C)cc1` [Compound 13], for which the logP in “logP (acidic, pH 2.3)” (pH 2.3) came out at 2.89. Also, the pest or weed control at 250 ppm in the series with Botrytis cinerea was no less than 70%. Also, the pest or weed control at 1000 ppm with Puccinia recondita is no less than 70%. Also, the pest or weed control at 10 ppm in the series on Uromyces appendiculatus was no less than 70%. Moreover, the pest or weed control at 100 ppm in the series with Podosphaera leucotricha and with Sphaerotheca fuliginea was no less than 70% each time.
`CCN(C)C=Nc1cc(C)c(Oc2ccc(-c3ccccc3C(C)=O)cc2)cc1C` [Compound 18] had a logP in “logP (acidic, pH 2.3)” (pH 2.3) of 2.29. In addition, in the series with Botrytis cinerea, the pest or weed control at 250 ppm is no less than 70%. For the same compound, the pest or weed control at 1000 ppm with Puccinia recondita is no less than 70%. Moreover, the pest or weed control at 10 ppm with Uromyces appendiculatus is no less than 70%. Moreover, the pest or weed control at 100 ppm with Podosphaera leucotricha and with Sphaerotheca fuliginea was no less than 70% throughout.
Regarding `CCN(C)C=Nc1cc(C)c(Oc2ccc(-c3ccc(SC)cc3)cc2)cc1C` [Compound 6, N′-(2,5-dimethyl-4-{[4′-(methylthio)biphenyl-4-yl]oxy}phenyl)-N-ethyl-N-methylimidoformamide], the logP in the series “logP (acidic, pH 2.3)” (pH 2.3, logP acidic, acidic) came to 2.67. Besides, in the series on Botrytis cinerea (setting [1]), the pest or weed control at 250 ppm is no less than 70%. Moreover, the pest or weed control at 1000 ppm with Puccinia recondita (setting [2]) is no less than 70%. Further, the pest or weed control at 10 ppm in the series with Uromyces appendiculatus (setting [3]) was no less than 70%. Moreover, the pest or weed control at 100 ppm in the series with Podosphaera leucotricha (setting [4]) and in the series with Sphaerotheca fuliginea (setting [5]) was no less than 70% each time.
As for “4-(4-Bromophenoxy)-2,5-dimethylnitrobenzene”, the “log P (pH 2.3)” value is recorded as 4.86.
Compound `Cc1cc(Oc2ccc(C3CCCC3)cc2)c(C)cc1N=CN(C)C(C)C` [Compound 33, N′-[4-(4-cyclopentylphenoxy)-2,5-dimethylphenyl]-N-isopropyl-N-methylimidoformamide] displayed a logP in the series “logP (acidic, pH 2.3)” (pH 2.3, logP acidic, acidic) of 3. For the same compound, the pest or weed control at 250 ppm in the series with Botrytis cinerea (setting [1]) was no less than 70%. Also, in the series with Puccinia recondita (setting [2]), the pest or weed control at 1000 ppm is no less than 70%. For the same compound, the pest or weed control at 10 ppm in the series on Uromyces appendiculatus (setting [3]) is no less than 70%. Moreover, the pest or weed control at 100 ppm with Podosphaera leucotricha (setting [4]) and in the series with Sphaerotheca fuliginea (setting [5]) was no less than 70% in each case.
Regarding `CCN(C)C=Nc1cc(C)c(Oc2ccc(-c3ccccc3Cl)cc2)cc1C` [Compound 27, N′-{4-[(2′-chlorobiphenyl-4-yl)oxy]-2,5-dimethylphenyl}-N-ethyl-N-methylimidoformamide], the lipophilicity (logP) in “logP (acidic, pH 2.3)” (pH 2.3, logP acidic, acidic) was 2.67. Also, the pest or weed control at 250 ppm with Botrytis cinerea (setting [1]) was no less than 70%. The pest or weed control at 1000 ppm in the series with Puccinia recondita (setting [2]) was no less than 70%. Besides, the pest or weed control at 10 ppm in the series with Uromyces appendiculatus (setting [3]) was no less than 70%. The pest or weed control at 100 ppm in the series with Podosphaera leucotricha (setting [4]) and in the series on Sphaerotheca fuliginea (setting [5]) was no less than 70% throughout.
For `CCN(C)C=Nc1cc(C)c(Oc2ccc(-c3ccc(OC)cc3)cc2)cc1C` [Compound 5, N-ethyl-N′-{4-[(4′-methoxybiphenyl-4-yl)oxy]-2,5-dimethylphenyl}-N-methylimidoformamide], the logP in “logP (acidic, pH 2.3)” (pH 2.3, log P (pH 2.3), pH 2.3) was determined as 2.57; in “logP (acidic, pH 2.3)” (pH 2.3, logP acidic, acidic), 2.47. Moreover, in the series with Botrytis cinerea (setting [1]), the pest or weed control at 250 ppm is no less than 70%. Further, in the series with Puccinia recondita (setting [2]), the pest or weed control at 1000 ppm is no less than 70%. For the same compound, in the series with Uromyces appendiculatus (setting [3]), the pest or weed control at 10 ppm is no less than 70%. Besides, the pest or weed control at 100 ppm with Podosphaera leucotricha (setting [4]) and with Sphaerotheca fuliginea (setting [5]) was no less than 70% throughout.
For the compound `CCN(C)C=Nc1cc(C)c(Oc2ccc(-c3ccc(F)cc3)cc2)cc1C` [Compound 11], the logP in the series “logP (acidic, pH 2.3)” (pH 2.3) was 2.69. Moreover, in the series on Botrytis cinerea, the pest or weed control at 250 ppm was no less than 70%. Moreover, in the series on Puccinia recondita, the pest or weed control at 1000 ppm was no less than 70%. For the same compound, in the series with Uromyces appendiculatus, the pest or weed control at 10 ppm is no less than 70%. Besides, the pest or weed control at 100 ppm in the series with Podosphaera leucotricha and in the series on Sphaerotheca fuliginea was no less than 70% each time.
Regarding `CCN(C)C=Nc1cc(C)c(Oc2ccc(C3CCCC3)cc2)cc1C` [Compound 32, N′-[4-(4-cyclopentylphenoxy)-2,5-dimethylphenyl]-N-ethyl-N-methylimidoformamide], the lipophilicity (logP) in “logP (acidic, pH 2.3)” (pH 2.3, logP acidic, acidic) was determined as 2.87. Moreover, in the series on Botrytis cinerea (setting [1]), the pest or weed control at 250 ppm is no less than 70%. Also, the pest or weed control at 1000 ppm with Puccinia recondita (setting [2]) was no less than 70%. Also, the pest or weed control at 10 ppm with Uromyces appendiculatus (setting [3]) is no less than 70%. Moreover, the pest or weed control at 100 ppm with Podosphaera leucotricha (setting [4]) and in the series with Sphaerotheca fuliginea (setting [5]) was no less than 70% throughout.
Turning to `Cc1cc(Oc2ccc(C3CCCC3)cc2)c(C)cc1/N=C/N1CCCCC1` [Compound 35, 4-(4-cyclopentylphenoxy)-2,5-dimethyl-N-[(1E)-piperidin-1-ylmethylene]aniline], the logP in the series “logP (acidic, pH 2.3)” (pH 2.3, logP acidic, acidic) is 3.13. In the series with Botrytis cinerea (setting [1]), the pest or weed control at 250 ppm was no less than 70%. In the series on Puccinia recondita (setting [2]), the pest or weed control at 1000 ppm was no less than 70%. Further, the pest or weed control at 10 ppm with Uromyces appendiculatus (setting [3]) was no less than 70%. In addition, in the series with Sphaerotheca fuliginea (setting [5]), the pest or weed control at 100 ppm was no less than 70%.

As usually defined, the logP is a log measure of how a compound divides between an organic and an aqueous phase.

The values above are taken from US8299302B2 (priority 2007, dated 2012).
